According to patent US10986838B2, “Herbicides” (SYNGENTA PARTICIPATIONS AG, priority 2016, dated 2021):

These compounds were tested on Zea Mays (ZEAMX) (assay: Pre-emergence herbicidal activity (B1)). Conditions: Test 1b, 1000 g/ha, evaluated after 13 days, 5=total damage to plant, 0=no damage to plant.
Type: in vivo
Description: (§1) B1 Pre-Emergence Herbicidal Activity Seeds of a variety of test species were sown in standard soil in pots: Triticum aestivium (TRZAW), Avena fatua (AVEFA), Alopecurus myosuroides (ALOMY), Echinochloa crus-galli (ECHCG), Lolium perenne (LOLPE), Zea Mays (ZEAMX), Abutilon theophrasti (ABUTH), Amaranthus retroflexus (AMARE) and Setaria faberi (SETFA). After cultivation for one day (pre-emergence) under controlled conditions in a glasshouse (at 24/16° C., day/night; 14 hours light; 65% humidity), the plants were sprayed with an aqueous spray solution derived from the formulation of the technical active ingredient in acetone/water (50:50) solution containing 0.5% Tween 20 (polyoxyethelyene sorbitan monolaurate, CAS RN 9005-64-5). The test plants were then grown in a glasshouse under controlled conditions (at 24/16° C., day/night; 14 hours light; 65% humidity) and watered twice daily. After 13 days, the test was evaluated (5=total damage to plant; 0=no damage to plant). Tables B1a and B1b Control of Weed Species by Compound of Formula (I) after Pre-Emergence Application

SMILES | ZEAMX damage score
Fc1cncc(-c2ccc(NCc3cccc(Cl)c3)c(C(F)(F)F)n2)c1 [Compound A18] | 4
C=CCNc1ccc(-c2cncc(F)c2)nc1C(F)(F)F [Compound A25] | 5
COc1cncc(-c2ccc(N)c(C)n2)c1 [Compound A13] | 0
Fc1ccc(CNc2ccc(-c3cncc(F)c3)nc2C(F)(F)F)cc1 [Compound A31] | 4
CNc1ccc(-c2cncc(C(F)(F)F)c2)nc1C(F)(F)F [Compound A7] | 0
Cc1ccc(CNc2ccc(-c3cncc(F)c3)nc2C(F)(F)F)cc1 [Compound A20] | 3

What follows are compounds tested on Abutilon theophrasti (ABUTH) (assay: Pre-emergence herbicidal activity (B1)). Conditions: Test 1b, 1000 g/ha, evaluated after 13 days, 5=total damage to plant, 0=no damage to plant.
Type: in vivo
Description: as §1

SMILES | ABUTH damage score
Fc1cncc(-c2ccc(NCc3cccc(Cl)c3)c(C(F)(F)F)n2)c1 [Compound A18] | 0
C=CCNc1ccc(-c2cncc(F)c2)nc1C(F)(F)F [Compound A25] | 0
COc1cncc(-c2ccc(N)c(C)n2)c1 [Compound A13] | 0
Fc1ccc(CNc2ccc(-c3cncc(F)c3)nc2C(F)(F)F)cc1 [Compound A31] | 1
CNc1ccc(-c2cncc(C(F)(F)F)c2)nc1C(F)(F)F [Compound A7] | 1
Cc1ccc(CNc2ccc(-c3cncc(F)c3)nc2C(F)(F)F)cc1 [Compound A20] | 0

Each compound was assayed on Lolium perenne (LOLPE) (assay: Pre-emergence herbicidal activity (B1)). Conditions: Test 1b, 1000 g/ha, evaluated after 13 days, 5=total damage to plant, 0=no damage to plant.
Type: in vivo
Description: as §1

SMILES | LOLPE damage score
Fc1cncc(-c2ccc(NCc3cccc(Cl)c3)c(C(F)(F)F)n2)c1 [Compound A18] | 0
C=CCNc1ccc(-c2cncc(F)c2)nc1C(F)(F)F [Compound A25] | 2
COc1cncc(-c2ccc(N)c(C)n2)c1 [Compound A13] | 0
Fc1ccc(CNc2ccc(-c3cncc(F)c3)nc2C(F)(F)F)cc1 [Compound A31] | 2
CNc1ccc(-c2cncc(C(F)(F)F)c2)nc1C(F)(F)F [Compound A7] | 0
Cc1ccc(CNc2ccc(-c3cncc(F)c3)nc2C(F)(F)F)cc1 [Compound A20] | 0

Each compound was assayed on Setaria faberi (SETFA) (assay: Pre-emergence herbicidal activity (B1)). Conditions: Test 1b, 1000 g/ha, evaluated after 13 days, 5=total damage to plant, 0=no damage to plant.
Type: in vivo
Description: as §1

SMILES | SETFA damage score
Fc1cncc(-c2ccc(NCc3cccc(Cl)c3)c(C(F)(F)F)n2)c1 [Compound A18] | 4
C=CCNc1ccc(-c2cncc(F)c2)nc1C(F)(F)F [Compound A25] | 4
COc1cncc(-c2ccc(N)c(C)n2)c1 [Compound A13] | 0
Fc1ccc(CNc2ccc(-c3cncc(F)c3)nc2C(F)(F)F)cc1 [Compound A31] | 5
CNc1ccc(-c2cncc(C(F)(F)F)c2)nc1C(F)(F)F [Compound A7] | 3
Cc1ccc(CNc2ccc(-c3cncc(F)c3)nc2C(F)(F)F)cc1 [Compound A20] | 5

Each compound was assayed on Amaranthus retroflexus (AMARE) (assay: Pre-emergence herbicidal activity (B1)). Conditions: Test 1b, 1000 g/ha, evaluated after 13 days, 5=total damage to plant, 0=no damage to plant.
Type: in vivo
Description: as §1

SMILES | AMARE damage score
Fc1cncc(-c2ccc(NCc3cccc(Cl)c3)c(C(F)(F)F)n2)c1 [Compound A18] | 0
C=CCNc1ccc(-c2cncc(F)c2)nc1C(F)(F)F [Compound A25] | 1
COc1cncc(-c2ccc(N)c(C)n2)c1 [Compound A13] | 0
Fc1ccc(CNc2ccc(-c3cncc(F)c3)nc2C(F)(F)F)cc1 [Compound A31] | 1
CNc1ccc(-c2cncc(C(F)(F)F)c2)nc1C(F)(F)F [Compound A7] | 1
Cc1ccc(CNc2ccc(-c3cncc(F)c3)nc2C(F)(F)F)cc1 [Compound A20] | 0

The compounds below were run on Echinochloa crus-galli (ECHCG) (assay: Pre-emergence herbicidal activity (B1)). Conditions: Test 1b, 1000 g/ha, evaluated after 13 days, 5=total damage to plant, 0=no damage to plant.
Type: in vivo
Description: as §1

SMILES | ECHCG damage score
Fc1cncc(-c2ccc(NCc3cccc(Cl)c3)c(C(F)(F)F)n2)c1 [Compound A18] | 2
C=CCNc1ccc(-c2cncc(F)c2)nc1C(F)(F)F [Compound A25] | 4
COc1cncc(-c2ccc(N)c(C)n2)c1 [Compound A13] | 0
Fc1ccc(CNc2ccc(-c3cncc(F)c3)nc2C(F)(F)F)cc1 [Compound A31] | 4
CNc1ccc(-c2cncc(C(F)(F)F)c2)nc1C(F)(F)F [Compound A7] | 0
Cc1ccc(CNc2ccc(-c3cncc(F)c3)nc2C(F)(F)F)cc1 [Compound A20] | 2

These compounds were tested on Zea Mays (ZEAMX) (assay: Post-emergence herbicidal activity (B2)). Conditions: Test B2b, 1000 g/ha, evaluated after 13 days, 5=total damage to plant, 0=no damage to plant.
Type: in vivo
Description: (§2) B2 Post-Emergence Herbicidal Activity Seeds of a variety of test species were sown in standard soil in pots: Triticum aestivium (TRZAW), Avena fatua (AVEFA), Alopecurus myosuroides (ALOMY), Echinochloa crus-galli (ECHCG), Lolium perenne (LOLPE), Zea Mays (ZEAMX), Abutilon theophrasti (ABUTH), Amaranthus retroflexus (AMARE) and Setaria faberi (SETFA). After 8 days cultivation (post-emergence) under controlled conditions in a glasshouse (at 24/16° C., day/night; 14 hours light; 65% humidity), the plants were sprayed with an aqueous spray solution derived from the formulation of the technical active ingredient in acetone/water (50:50) solution containing 0.5% Tween 20 (polyoxyethelyene sorbitan monolaurate, CAS RN 9005-64-5). The test plants were then grown in a glasshouse under controlled conditions (at 24/16° C., day/night; 14 hours light; 65% humidity) and watered twice daily. After 13 days, the test was evaluated (5=total damage to plant; 0=no damage to plant). Tables B2a and B2b Control of Weed Species by Compound of Formula (I) after Post-Emergence Application

SMILES | ZEAMX damage score
Fc1cncc(-c2ccc(NCc3cccc(Cl)c3)c(C(F)(F)F)n2)c1 [Compound A18] | 5
C=CCNc1ccc(-c2cncc(F)c2)nc1C(F)(F)F [Compound A25] | 5
COc1cncc(-c2ccc(N)c(C)n2)c1 [Compound A13] | 2
Fc1ccc(CNc2ccc(-c3cncc(F)c3)nc2C(F)(F)F)cc1 [Compound A31] | 5
CNc1ccc(-c2cncc(C(F)(F)F)c2)nc1C(F)(F)F [Compound A7] | 1
Cc1ccc(CNc2ccc(-c3cncc(F)c3)nc2C(F)(F)F)cc1 [Compound A20] | 5

These compounds were tested on Abutilon theophrasti (ABUTH) (assay: Post-emergence herbicidal activity (B2)). Conditions: Test B2b, 1000 g/ha, evaluated after 13 days, 5=total damage to plant, 0=no damage to plant.
Type: in vivo
Description: as §2

SMILES | ABUTH damage score
Fc1cncc(-c2ccc(NCc3cccc(Cl)c3)c(C(F)(F)F)n2)c1 [Compound A18] | 0
C=CCNc1ccc(-c2cncc(F)c2)nc1C(F)(F)F [Compound A25] | 0
COc1cncc(-c2ccc(N)c(C)n2)c1 [Compound A13] | 0
Fc1ccc(CNc2ccc(-c3cncc(F)c3)nc2C(F)(F)F)cc1 [Compound A31] | 0
CNc1ccc(-c2cncc(C(F)(F)F)c2)nc1C(F)(F)F [Compound A7] | 0
Cc1ccc(CNc2ccc(-c3cncc(F)c3)nc2C(F)(F)F)cc1 [Compound A20] | 0

The compounds below were run on Lolium perenne (LOLPE) (assay: Post-emergence herbicidal activity (B2)). Conditions: Test B2b, 1000 g/ha, evaluated after 13 days, 5=total damage to plant, 0=no damage to plant.
Type: in vivo
Description: as §2

SMILES | LOLPE damage score
Fc1cncc(-c2ccc(NCc3cccc(Cl)c3)c(C(F)(F)F)n2)c1 [Compound A18] | 2
C=CCNc1ccc(-c2cncc(F)c2)nc1C(F)(F)F [Compound A25] | 3
COc1cncc(-c2ccc(N)c(C)n2)c1 [Compound A13] | 0
Fc1ccc(CNc2ccc(-c3cncc(F)c3)nc2C(F)(F)F)cc1 [Compound A31] | 3
CNc1ccc(-c2cncc(C(F)(F)F)c2)nc1C(F)(F)F [Compound A7] | 1
Cc1ccc(CNc2ccc(-c3cncc(F)c3)nc2C(F)(F)F)cc1 [Compound A20] | 2

These compounds were tested on Setaria faberi (SETFA) (assay: Post-emergence herbicidal activity (B2)). Conditions: Test B2b, 1000 g/ha, evaluated after 13 days, 5=total damage to plant, 0=no damage to plant.
Type: in vivo
Description: as §2

SMILES | SETFA damage score
Fc1cncc(-c2ccc(NCc3cccc(Cl)c3)c(C(F)(F)F)n2)c1 [Compound A18] | 5
C=CCNc1ccc(-c2cncc(F)c2)nc1C(F)(F)F [Compound A25] | 5
COc1cncc(-c2ccc(N)c(C)n2)c1 [Compound A13] | 1
Fc1ccc(CNc2ccc(-c3cncc(F)c3)nc2C(F)(F)F)cc1 [Compound A31] | 5
CNc1ccc(-c2cncc(C(F)(F)F)c2)nc1C(F)(F)F [Compound A7] | 3
Cc1ccc(CNc2ccc(-c3cncc(F)c3)nc2C(F)(F)F)cc1 [Compound A20] | 5

Each compound was assayed on Amaranthus retroflexus (AMARE) (assay: Post-emergence herbicidal activity (B2)). Conditions: Test B2b, 1000 g/ha, evaluated after 13 days, 5=total damage to plant, 0=no damage to plant.
Type: in vivo
Description: as §2

SMILES | AMARE damage score
Fc1cncc(-c2ccc(NCc3cccc(Cl)c3)c(C(F)(F)F)n2)c1 [Compound A18] | 0
C=CCNc1ccc(-c2cncc(F)c2)nc1C(F)(F)F [Compound A25] | 2
COc1cncc(-c2ccc(N)c(C)n2)c1 [Compound A13] | 1
Fc1ccc(CNc2ccc(-c3cncc(F)c3)nc2C(F)(F)F)cc1 [Compound A31] | 1
CNc1ccc(-c2cncc(C(F)(F)F)c2)nc1C(F)(F)F [Compound A7] | 1
Cc1ccc(CNc2ccc(-c3cncc(F)c3)nc2C(F)(F)F)cc1 [Compound A20] | 0

What follows are compounds tested on Echinochloa crus-galli (ECHCG) (assay: Post-emergence herbicidal activity (B2)). Conditions: Test B2b, 1000 g/ha, evaluated after 13 days, 5=total damage to plant, 0=no damage to plant.
Type: in vivo
Description: as §2

SMILES | ECHCG damage score
Fc1cncc(-c2ccc(NCc3cccc(Cl)c3)c(C(F)(F)F)n2)c1 [Compound A18] | 3
C=CCNc1ccc(-c2cncc(F)c2)nc1C(F)(F)F [Compound A25] | 4
COc1cncc(-c2ccc(N)c(C)n2)c1 [Compound A13] | 1
Fc1ccc(CNc2ccc(-c3cncc(F)c3)nc2C(F)(F)F)cc1 [Compound A31] | 4
CNc1ccc(-c2cncc(C(F)(F)F)c2)nc1C(F)(F)F [Compound A7] | 1
Cc1ccc(CNc2ccc(-c3cncc(F)c3)nc2C(F)(F)F)cc1 [Compound A20] | 3
